Laboratory results as given in patent publication US20180057507A1, “INHIBITORS OF DUAL LEUCINE ZIPPER (DLK) KINASE FOR THE TREATMENT OF DISEASE” (Board of Regents, The University of Texas System, priority 2016, published 2018).

Legend:
human DLK [1] = target: T1, human DLK (Homo sapiens, UniProt Q12852); assay: Phospho-cJun Cellular Assay; assay type: cell-based; set-up: expressed in transfected cells; settings: HEK293 cells stably transfected with Dox-inducible human DLK; p-cJun (Ser63); 5 h compound incubation
T1 sequence (Q12852 1-859): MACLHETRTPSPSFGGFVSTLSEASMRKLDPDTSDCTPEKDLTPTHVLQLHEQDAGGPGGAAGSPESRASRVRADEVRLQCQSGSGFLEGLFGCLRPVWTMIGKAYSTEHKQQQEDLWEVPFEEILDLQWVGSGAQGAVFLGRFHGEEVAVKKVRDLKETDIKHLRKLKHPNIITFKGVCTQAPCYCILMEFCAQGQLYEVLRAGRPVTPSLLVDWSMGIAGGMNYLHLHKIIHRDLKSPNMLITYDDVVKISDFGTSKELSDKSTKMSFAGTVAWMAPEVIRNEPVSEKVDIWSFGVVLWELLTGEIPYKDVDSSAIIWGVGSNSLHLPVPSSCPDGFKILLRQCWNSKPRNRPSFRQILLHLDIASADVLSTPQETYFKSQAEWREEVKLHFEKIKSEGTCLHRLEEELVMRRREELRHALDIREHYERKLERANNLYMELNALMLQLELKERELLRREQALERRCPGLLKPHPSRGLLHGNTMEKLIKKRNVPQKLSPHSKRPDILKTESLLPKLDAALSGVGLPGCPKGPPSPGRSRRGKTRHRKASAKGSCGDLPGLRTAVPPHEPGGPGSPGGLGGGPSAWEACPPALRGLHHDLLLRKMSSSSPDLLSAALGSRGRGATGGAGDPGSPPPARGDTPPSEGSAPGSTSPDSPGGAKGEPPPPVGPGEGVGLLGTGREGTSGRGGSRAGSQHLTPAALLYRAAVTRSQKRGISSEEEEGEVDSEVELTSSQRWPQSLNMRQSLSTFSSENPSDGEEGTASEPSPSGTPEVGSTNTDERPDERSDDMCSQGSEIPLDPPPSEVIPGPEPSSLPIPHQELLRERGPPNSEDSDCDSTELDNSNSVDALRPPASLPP
In short: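 HEK293 cells with doxycycline-induced human DLK (induced 20 h; uninduced cells as negative control) treated with compound for 5 h at 37 °C. Phospho-cJun (Ser63) measured in lysates with detection-antibody kit; IC50 from variable-slope dose-response fit.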

human DLK [2] = target: T1, human DLK; assay: DLK Kd Determinations (KINOMEscan KdELECT, DiscoveRx); set-up: full length of human DLK (amino acids 1-859); host or cells: transiently transfected HEK293 cells; unpurified extract; settings: fusion protein of full length human DLK (amino acids 1-859) and NFkB DNA binding domain; qPCR readout; duplicate
In short: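 Competition binding of full-length human DLK (aa 1-859)-NFkB DBD fusion, DNA-tagged, from HEK293 extracts against an immobilized ligand; 1 h at room temperature, 0.9% DMSO. Bead-bound kinase was quantified by qPCR. Kd came from an 11-point 3-fold series (top 30,000 nM), in duplicate, with Hill slope fixed at −1.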

SMILES | IC50 (human DLK [1]) [nM] | Kd (human DLK [2]) [nM]
Nc1ncc(-c2cn([C@H]3[C@@H]4CN(C5COC5)C[C@@H]43)c(CC3CC3)n2)cc1OC(F)(F)F [Example 92, 5-(2-(cyclopropylmethyl)-1-((1R,5S,6s)-3-(oxetan-3-yl)-3-azabicyclo[3.1.0]hexan-6-yl)-1H-imidazol-4-yl)-3-(trifluoromethoxy)pyridin-2-amine] | 1820 | 55
COCCN1C[C@@H]2[C@H](C1)[C@H]2n1cc(-c2cnc(N)c(C(F)(F)F)c2)nc1C1CC1 [Example 94, 5-(2-cyclopropyl-1-((1R,5S,6s)-3-(2-methoxyethyl)-3-azabicyclo[3.1.0]hexan-6-yl)-1H-imidazol-4-yl)-3-(trifluoromethyl)pyridin-2-amine] | 1960 | 61
Nc1ncc(-c2cn([C@H]3[C@@H]4CN(CCF)C[C@@H]43)c(C3CC3)n2)cc1C(F)(F)F [Example 95, 5-(2-cyclopropyl-1-((1R,5S,6s)-3-(2-fluoroethyl)-3-azabicyclo[3.1.0]hexan-6-yl)-1H-imidazol-4-yl)-3-(trifluoromethyl)pyridin-2-amine] | 1200 | 12.3
Nc1ncc(-c2cn([C@H]3[C@@H]4CN(C5CCOCC5)C[C@@H]43)c(C3CC3)n2)cc1OC(F)F [Example 105, 5-(2-cyclopropyl-1-((1R,5S,6s)-3-(tetrahydro-2H-pyran-4-yl)-3-azabicyclo[3.1.0]hexan-6-yl)-1H-imidazol-4-yl)-3-(difluoromethoxy)pyridin-2-amine] | 1900 | 79
Nc1ncc(-c2cn([C@H]3[C@@H]4CN(CCF)C[C@@H]43)c(CC3CC3)n2)cc1OC(F)F [Example 116, 5-(2-(cyclopropylmethyl)-1-((1R,5S,6s)-3-(2-fluoroethyl)-3-azabicyclo[3.1.0]hexan-6-yl)-1H-imidazol-4-yl)-3-(difluoromethoxy)pyridin-2-amine] | 1440 | 53
COCCN1C[C@@H]2[C@H](C1)[C@H]2n1cc(-c2cnc(N)c(OC(F)F)c2)nc1CC1CC1 [Example 117, 5-(2-(cyclopropylmethyl)-1-((1R,5S,6s)-3-(2-methoxyethyl)-3-azabicyclo[3.1.0]hexan-6-yl)-1H-imidazol-4-yl)-3-(difluoromethoxy)pyridin-2-amine] | 987 | 48
CCC(CC)c1nc(-c2cnc(N)c(C(F)(F)F)c2)cn1[C@H]1[C@@H]2CN(CCF)C[C@@H]21 [Example 125, 5-(1-((1R,5S,6s)-3-(2-fluoroethyl)-3-azabicyclo[3.1.0]hexan-6-yl)-2-(pentan-3-yl)-1H-imidazol-4-yl)-3-(trifluoromethyl)pyridin-2-amine] | 1290 | 120
CC(C)Cc1nc(-c2cnc(N)c(C(F)(F)F)c2)cn1[C@H]1[C@@H]2CN(CCF)C[C@@H]21 [Example 126, 5-(1-((1R,5S,6s)-3-(2-fluoroethyl)-3-azabicyclo[3.1.0]hexan-6-yl)-2-isobutyl-1H-imidazol-4-yl)-3-(trifluoromethyl)pyridin-2-amine] | 823 | 34
CC(C)c1nc(-c2cnc(N)c(C(F)(F)F)c2)cn1[C@H]1[C@@H]2CC(N3CCCOCC3)C[C@@H]21 (some centres unmarked) [Example 130, 5-(1-(3-(1,4-oxazepan-4-yl)bicyclo[3.1.0]hexan-6-yl)-2-isopropyl-1H-imidazol-4-yl)-3-(trifluoromethyl)pyridin-2-amine] | 1760 | 25
CN1CCN(C2C[C@@H]3[C@H](C2)[C@H]3n2cc(-c3cnc(N)c(OC(F)(F)F)c3)nc2C2CC2)CC1 (some centres unmarked) [Example 135, 5-(2-cyclopropyl-1-(3-(4-methylpiperazin-1-yl)bicyclo[3.1.0]hexan-6-yl)-1H-imidazol-4-yl)-3-(trifluoromethoxy)pyridin-2-amine] | 346 | 17
Nc1ncc(-c2cn([C@H]3[C@@H]4CC(N5CCCOCC5)C[C@@H]43)c(C3CC3)n2)cc1OC(F)(F)F (some centres unmarked) [Example 136, 5-(1-(3-(1,4-oxazepan-4-yl)bicyclo[3.1.0]hexan-6-yl)-2-cyclopropyl-1H-imidazol-4-yl)-3-(trifluoromethoxy)pyridin-2-amine] | 662 | 20
CC(C)c1nc(-c2cnc(N)c(C(F)(F)F)c2)cn1[C@H]1[C@@H]2CC(N3CCOC[C@@H]3C)C[C@@H]21 (stereo partly drawn) [Example 143, 5-(2-isopropyl-1-(3-((S)-3-methylmorpholino)bicyclo[3.1.0]hexan-6-yl)-1H-imidazol-4-yl)-3-(trifluoromethyl)pyridin-2-amine] | 1510 | 19
CC1COCCN1C1C[C@@H]2[C@H](C1)[C@H]2n1cc(-c2cnc(N)c(OC(F)(F)F)c2)nc1C1CC1 (some centres unmarked) [Example 148, 5-(2-cyclopropyl-1-(3-(3-methylmorpholino)bicyclo[3.1.0]hexan-6-yl)-1H-imidazol-4-yl)-3-(trifluoromethoxy)pyridin-2-amine] | 710 | 22

More lines, in order of falling IC50 (human DLK [1]), values ahead:

IC50 (human DLK [1]) [nM] | Kd (human DLK [2]) [nM] | SMILES
1900 | 57 | Nc1ncc(-c2cn([C@H]3[C@@H]4CN(C5CCOCC5)C[C@@H]43)c(CC3CC3)n2)cc1OC(F)(F)F [Example 97, 5-(2-(cyclopropylmethyl)-1-((1R,5S,6s)-3-(tetrahydro-2H-pyran-4-yl)-3-azabicyclo[3.1.0]hexan-6-yl)-1H-imidazol-4-yl)-3-(trifluoromethoxy)pyridin-2-amine]
1850 | 71 | Nc1ncc(-c2cn([C@H]3[C@@H]4CN(C5CCOCC5)C[C@@H]43)c(CC(F)(F)F)n2)cc1C(F)(F)F [Example 119, 5-(1-((1R,5S,6s)-3-(tetrahydro-2H-pyran-4-yl)-3-azabicyclo[3.1.0]hexan-6-yl)-2-(2,2,2-trifluoroethyl)-1H-imidazol-4-yl)-3-(trifluoromethyl)pyridin-2-amine]
1590 | 49 | COCCN1C[C@@H]2[C@H](C1)[C@H]2n1cc(-c2cnc(N)c(C(F)(F)F)c2)nc1CC(F)(F)F [Example 121, 5-(1-((1R,5S,6s)-3-(2-methoxyethyl)-3-azabicyclo[3.1.0]hexan-6-yl)-2-(2,2,2-trifluoroethyl)-1H-imidazol-4-yl)-3-(trifluoromethyl)pyridin-2-amine]
1390 | 34 | CC(C)c1nc(-c2cnc(N)c(C(F)(F)F)c2)cn1[C@H]1[C@@H]2CC(N3CCOC[C@@H]3C)C[C@@H]21 (stereo partly drawn) [Example 131, 5-(2-isopropyl-1-(3-((S)-3-methylmorpholino)bicyclo[3.1.0]hexan-6-yl)-1H-imidazol-4-yl)-3-(trifluoromethyl)pyridin-2-amine]
934 | 9.4 | CC(C)c1nc(-c2cnc(N)c(C(F)(F)F)c2)cn1[C@H]1[C@@H]2CC(N3CCCOCC3)C[C@@H]21 (some centres unmarked) [Example 142, 5-(1-(3-(1,4-oxazepan-4-yl)bicyclo[3.1.0]hexan-6-yl)-2-isopropyl-1H-imidazol-4-yl)-3-(trifluoromethyl)pyridin-2-amine]
909 | 22 | CC(C)c1nc(-c2cnc(N)c(C(F)(F)F)c2)cn1[C@H]1[C@@H]2CC(N3CCN(C)CC3)C[C@@H]21 (some centres unmarked) [Example 132, 5-(2-isopropyl-1-(3-(4-methylpiperazin-1-yl)bicyclo[3.1.0]hexan-6-yl)-1H-imidazol-4-yl)-3-(trifluoromethyl)pyridin-2-amine]
893 | 23 | CC1COCCN1C1CC2C(C1)C2n1cc(-c2cnc(N)c(OC(F)(F)F)c2)nc1C1CC1 (centres unmarked) [Example 147, 5-(2-cyclopropyl-1-(3-(3-methylmorpholino)bicyclo[3.1.0]hexan-6-yl)-1H-imidazol-4-yl)-3-(trifluoromethoxy)pyridin-2-amine]
859 | 38 | CC(C)c1nc(-c2cnc(N)c(C(F)(F)F)c2)cn1[C@H]1[C@@H]2CC(N3CCN(C)CC3)C[C@@H]21 (some centres unmarked) [Example 144, 5-(2-isopropyl-1-(3-(4-methylpiperazin-1-yl)bicyclo[3.1.0]hexan-6-yl)-1H-imidazol-4-yl)-3-(trifluoromethyl)pyridin-2-amine]
710 | 22 | CN1CCN(C2CC3C(C2)C3n2cc(-c3cnc(N)c(OC(F)F)c3)nc2C2CC2)CC1 (centres unmarked) [Example 137, 5-(2-cyclopropyl-1-(3-(4-methylpiperazin-1-yl)bicyclo[3.1.0]hexan-6-yl)-1H-imidazol-4-yl)-3-(difluoromethoxy)pyridin-2-amine]
